Experimental data from ChEMBL document CHEMBL1145686, “Three new oleanane saponins from Zanha africana” (1997).

Tested on: Mus musculus
Test: Antiinflammatory activity against TPA-induced ear edema in mouse assessed per ear
Type: functional

| Structure (SMILES) | ID50 [µg] |
| --- | --- |
| C[C@@H]1O[C@@H](O[C@H]2[C@H](OC(=O)[C@]34CCC(C)(C)C[C@H]3C3=CC[C@@H]5[C@@]6(C)C[C@H](O)[C@H](O[C@@H]7O[C@H](C(=O)O)[C@@H](O)[C@H](O)[C@H]7O)[C@@](C)(C(=O)O)[C@@H]6CC[C@@]5(C)[C@]3(C)C[C@H]4O)O[C@@H](C)[C@H](O)[C@H]2O)[C@H](O)[C@H](O)[C@H]1O [ZANHASAPONIN A] | 14 |
| C[C@@H]1O[C@@H](O[C@H]2[C@H](OC(=O)[C@]34CCC(C)(C)C[C@H]3C3=CC[C@@H]5[C@@]6(C)C[C@H](O)[C@H](O[C@@H]7O[C@H](C(=O)O)[C@@H](O)[C@H](O)[C@H]7O)[C@@](C)(C(=O)O)[C@@H]6CC[C@@]5(C)[C@]3(C)C[C@H]4O)O[C@@H](C)[C@H](O)[C@H]2O)[C@H](O[C@@H]2OC[C@@H](O)[C@H](O)[C@H]2O)[C@H](O)[C@H]1O [ZANHASAPONIN B] | 20 |
| C[C@@H]1O[C@@H](O[C@H]2[C@H](OC(=O)[C@]34CCC(C)(C)C[C@H]3C3=CC[C@@H]5[C@@]6(C)C[C@H](O)[C@H](O[C@@H]7O[C@H](C(=O)O)[C@@H](O)[C@H](O)[C@H]7O)[C@@](C)(C(=O)O)[C@@H]6CC[C@@]5(C)[C@]3(C)C[C@H]4O)O[C@@H](C)[C@H](O)[C@H]2O)[C@H](O[C@@H]2OC[C@@H](O)[C@H](O[C@@H]3OC[C@@H](O)[C@H](O)[C@H]3O)[C@H]2O)[C@H](O)[C@H]1O [ZANHASAPONIN C] | 79 |
